From PMC11859040 (Pharmaceuticals, 2025)
≈ marks a conversion by molar mass, not a printed value.

Legend:
[1] = system: ARPE-19 cells; assay: Indirect quantification of CUR uptake (CUR recovered in medium); format: cell-based, human
Description: ARPE-19 cells were seeded on acid-etched coverslips placed into a 6-well plate with a seeding density of 850,000 cells/well and incubated at 37 °C for 24 h. The cells were then incubated with media containing AC at the same concentration that was used for the cytotoxicity experiment. After 3 h of exposure to the AC and C formulations, the coverslips were removed, washed twice with PBS, and fixed with 4% paraformaldehyde (PFA) for 15 min. Subsequently, the PFA was removed, followed by two washes with PBS. […] Cell imaging was conducted using a ZEISS Axio Imager M2 fluorescent microscope (Carl Zeiss Microscopy Deutschland GmbH, Oberkochen, Germany). […] The experiments were conducted 24 h after seeding, using an FBS-free medium. The cells were rinsed once with a serum-free medium to remove the FBS residues and then exposed to 0.1–2 μM concentrations of SNEDD-CUR diluted in a medium. After a 3 h exposure period, the medium was removed and collected into another 96-well plate.

[2] = system: cell proliferation; details: cited from earlier work
[3] = CUR solubility in different vehicles (oils and surfactants); format: physicochemical; details: for solubility at 24 h: 25 °C, thermodynamic from solid
Description: Different types of oils were selected based on biocompatibility and biodegradability: Mygliol® 812, Capryol® PGMC and Capryol® 90, Tegin® O, Isopropylmyristate (IPM), and Castor oil. Five surfactants, including Tween® 20, Tween® 80, Cremophor EL®, Solutol ®HS15, and Transcutol® P, were selected for the experiment in order to investigate the best materials for CUR-SNEDDS preparation. […] The mixtures were stirred (350 rpm) using a magnetic stirrer for 24 h. The samples were covered in order to prevent photo-degradation. […] The absorbance reading occurred at 422 nm.

[4] = system: ARPE-19 cells; assay: Cytocompatibility, MTT assay, ARPE-19 cells; format: cell-based, human; details: 5 μM CUR, 3 h, vs control
Description: The ARPE-19 cell line obtained from the American Type Culture Collection (ATCC, Manassas, VA, USA) was used in the study. Cells were cultured in Dulbecco’s modified eagle medium/nutrition mix F-12 (1:1; Gibco, Paisley, UK) supplemented with 10% fetal bovine serum (FBS; Hyclone, Logan, UT, USA), 100 U/mL penicillin (Lonza, Walkersville, MD), and 2 mM L-glutamine (Lonza, Walkersville, MD, USA). The cells were grown at 37 °C in a humidified 5% CO2 atmosphere. The experiments were performed 24 h after seeding using an FBS-free medium. […] The cells were exposed for 3 h before the cell viability tests. Cell viability was assessed using the MTT assay. Cells were assessed with microscopy before the viability test to confirm the correlation of the absorbance readings from the MTT assay.

[5] = Stability of CUR in PBS and in SNEDDS under storage conditions; format: physicochemical; details: PBS, 6 h
Description: HPLC analysis was performed on a reversed-phase C18 column (4.6 mm × 150 mm, 5 μm, ZORBAX Eclipse SB-C18) at 25 °C. The mobile phase was composed of water with 4% acetic acid and acetonitrile (44:56, v/v), filtered through a 0.22 μm Milli-pore filter and degassed prior to use. The flow rate was 0.850 mL/min, and the eluent was detected by a DAD detector at 430 nm.
The preparation of the sample AC followed the procedure described in Section 4.3. The sample was divided into four glass vials, with each set of vials being stored under different conditions, namely at 4 °C dark, 25 °C dark, 25 °C light, and 40 °C dark, to assess the typical storage conditions and investigate possible protection from degradation phenomena. Sample C was prepared differently. […] The mixture was then subjected to magnetic stirring at 350 rpm for 20 min. After stirring, the tube was centrifuged at 13,000 rpm for 20 min at 25 °C. The supernatant was collected and divided into four glass vials, each representing a different storage condition compared to the AC sample. […] HPLC analysis was employed to detect any variations in absorbance.

[6] = system: ARPE-19 cells; assay: Cell viability in HQ-induced oxidative stress (MTT); format: cell-based, human; details: ARPE-19, 600 μM HQ
Description: (§1) […] Cells were rinsed once using an FBS-free medium to remove any residual CUR-SNEDDS. Afterward, the oxidative stress-provoking agent, HQ (Sigma-Aldrich), was added. The cells were exposed to 600 μM HQ for 2 h to achieve 60–70% viability, as determined in the control samples [44]. Cell viability was assessed using the MTT assay. Cells were assessed with microscopy before the viability test to confirm the correlation of the absorbance readings from the MTT assay.

[7] = Solubility of CUR in water (inherent vs apparent with SNEDDS); format: physicochemical
[8] = system: HCE cells; assay: Cytocompatibility, MTT assay, HCE cells; format: cell-based, human; details: 5 μM CUR, 3 h, vs control
Description: HCE cells were cultured at 37 °C and 5% CO2 using a growth medium consisting of 1:1 DMEM/F12 (Gibco by Life Technologies Limited, Paisley, UK), 15% FBS (fetal bovine serum; Gibco by Life Technologies Limited, Paisley, UK), 100 U/mL penicillin, 0.1 mg/mL streptomycin (penicillin/streptomycin solution from EuroClone spa, Pero, Italy), 0.3 mg/mL L-glutamine (EuroClone spa, Pero, Italy), 10 ng/mL EGF (Recombinant Human Epidermal Growth Factor; Gibco by Life Technologies Corporation, Carlsbad, CA, USA), 5 μg/mL human recombinant insulin (Gibco by Life Technologies Corporation, Grand Island, NY, USA), and 0.5% sterile filtrated DMSO (Sigma-Aldrich, St. Louis, MO, USA), 0.1 μg/mL cholera toxin (Sigma-Aldrich, St. Louis, MO, USA). The fresh growth medium was changed for the cells every 2–3 days. When reaching a 75–80% confluence, the cells were either subcultured 1:5–1:30 or seeded for the experiment. Upon confluence, the cells were washed with 1xDPBS (Gibco by Life Technologies Limited, Paisley, UK) and detached with 0.05% trypsin–EDTA (Gibco by Life Technologies Limited, Paisley, UK). […] Cell viability was assessed using the 3-(4,5-dimethyl-thiazol-2-yl)-2,5-diphenyltetrazolium bromide (MTT) assay. Cells were assessed with microscopy before the viability test to confirm the correlation of the absorbance readings from the MTT assay.

[9] = Cell viability in HQ-induced oxidative stress (MTT); format: cell-based, human; details: human, ARPE-19 cells; ARPE-19, 600 μM HQ alone
Description: as §1

Compound	CUR recovered in the medium (not internalized) ([1]; ARPE-19, 3 h, listed as free CUR)	CUR internalized ([1]; ARPE-19, concentration not stated (discussion))	CUR internalized inside the cells ([1]; ARPE-19, higher concentrations such as 1 μM and 2 μM, 3 h)	IC50 ([2]; anticancer agent and cell proliferation blocker)	Concentrations at which CUR acts as anticancer agent and cell proliferation blocker [2]	solubility at 24 h ([3]; aqueous with cosolvent or surfactant or cyclodextrin, in Tween 80)	solubility at 24 h ([3]; oil or lipid, in Capryol 90)	solubility at 24 h ([3]; organic solvent or mixture, in Transcutol P)	Solubility of CUR ([3]; in Capryol PGMC)	Reduction in cell viability [4]	CUR remaining / recovered ([5]; 4 °C)	CUR remaining / recovered ([5]; 25 °C (r.t.) dark)	CUR remaining / recovered ([5]; 25 °C (r.t.) dark, listed as Native CUR)	CUR remaining / recovered ([5]; 25 °C light)	CUR remaining / recovered ([5]; 40 °C dark)	Effect on cell viability compared to cells exposed to HQ [6]	solubility [7]	Reduction in cell viability [8]	viability at 2 h, 600 μM [9]
COc1cc(/C=C/C(=O)CC(=O)/C=C/c2ccc(O)c(OC)c2)ccc1O [CUR, Curcumin]	100%	0%	1%	~10 µM	5 to 10 µM	6800 µg/mL (≈ 18.5 mM)	8360 µg/mL (≈ 22.7 mM)	4610 µg/mL (≈ 12.5 mM)	8000 µg/mL	not observed	57%	less than 10%	9%	completely degraded	completely degraded	no significant difference	< 1 µg/mL	not observed	–
Oc1ccc(O)cc1 [HQ, hydroquinone]	–	–	–	–	–	–	–	–	–	–	–	–	–	–	–	–	–	–	70%
